Experimental data: patent US4283422A (priority 1979, dated 1981)
Counter-ions that a name gives are not always drawn. Like-named read-outs stand apart in the source and are kept apart here.

Assays:
Newcastle disease virus = conditions: Koji Aigami et al., J. of Medicinal Chemistry, vol. 19, 536 (1976); cited from earlier work
[1] = tested on: Influenza A/PR/3/34 (HO, Nl) strain; test: microbe, parasite or virus in culture; format: cell-based; conditions: for HA-titer / MIC: MDCK cells; for HA-titer: 34° C., 3 days, control 256; for MIC: 72 h, Influenza virus; for inhibitory effects on Influenza virus growth: comparison of the two compounds, in words
MDCK cells = conditions: 3 days, microscopic CTE
in vitro = conditions: dog, mdck

Structure (SMILES) | antiviral activity against Newcastle disease virus (Newcastle disease virus) | HA-titer ([1]; 12.5 mcg/ml) | HA-titer ([1]; 25.0 mcg/ml) | MIC [1] [µg/mL] | inhibitory effects on Influenza virus growth [1] | Cytotoxicity (MDCK cells; 12.5 mcg/ml) | Cytotoxicity (MDCK cells; 25.0 mcg/ml) | MNTC at 72 h (in vitro) [µg/mL] | HA-titer ([1]; 50.0 mcg/ml) | Cytotoxicity (MDCK cells; 50.0 mcg/ml)
NC12CCCC3CC(CCC31)C2 (stereo not shown) [3-amino-4-homoisotwistane hydrochloride] | have antiviral activity against Newcastle disease virus | – | – | – | – | – | – | – | – | –
NC12CC3CC(CC(C3)C1)C2 [Amantadine hydrochloride] | – | 64 | < 4 | < 12.5 | equivalent inhibitory effects on Influenza virus growth | (±) (CTE is less than 10% of cells.) | (+) (CTE is more than 10% and less than 50% of cells.) | 12.5 | – | –
CN(C)C12CCCC3CC(CCC31)C2 (stereo not shown) | – | 64 | 64 | < 12.5 | equivalent inhibitory effects on Influenza virus growth | – | (±) (CTE is less than 10% of cells.) | 25 | < 4 | (+) (CTE is more than 10% and less than 50% of cells.)
